Data on one molecule can be found in patent publication US20230248833A1, “COMPOUND HAVING BTK KINASE DEGRADING ACTIVITY, AND PREPARATION METHOD AND PHARMACEUTICAL USE THEREFOR” (SICHUAN HAISCO PHARMACEUTICAL CO., LTD., priority 2020, published 2023).

One series relates to Mino cells. Nature of the series: Inhibition of cell proliferation, Mino cells (Cell Viability Assay, 72 h). The class given is cell-based, human. The conditions noted are these: Homo sapiens, MINO, 72 h. The method in brief:
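Cells in RPMI1640 + 10% FBS were seeded at 20000/well (SU-DHL-4) or 5000/well (Mino, SU-DHL-6) and exposed to compound for 72 h at 37 °C in triplicate, with a DMSO vehicle control. Viability was read by […]. IC50 was fitted, and Max inhi.% was taken at the highest concentration relative to vehicle.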

For the next series, the system named is SU-DHL-4 cells. The experiment in a line: Inhibition of cell proliferation, SU-DHL-4 cells (Cell Viability Assay, 72 h). It is filed as cell-based, human. Here is the method: (§1) SU-DHL-4, Mino, and SU-DHL-6 cells, in the culture medium of RPMI1640+10% FBS, were cultured in an incubator at 37° C. under 5% CO2. Cells were plated in a 96-well plate. Specifically, SU-DHL-4 cells were at 20000/well, Mino and SU-DHL-6 cells were at 5000/well, with 90 μL/well. 10 μL of the compounds at different concentrations were added to each well. There were 3 replicate wells for each concentration, and the last column, added with DMSO, was used as a vehicle control group. The cultures were continued for 72 hours at 37° C. under 5% CO2. After 72 hours, 100 μL of detection reagent (Cell Viability Assay, Promega, G7573) was added to each well, and the cultures were uniformly mixed for 2 minutes, and incubated at room temperature for 10 minutes. The […] signal value was measured with a microplate reader (PHERAstar FSX). The IC50 value of the compound on cell proliferation inhibition was calculated using origin9.2 software, and the inhibition rate at the highest concentration of the compound (Max inhi.%) was calculated according to formula (1).
(§2) Max inhi.%=(1−T72administration/T72vehicle)×100 Formula (1).

For another series, the system named is SU-DHL-6 cells. Nature of the series: Inhibition of cell proliferation, SU-DHL-6 cells (Cell Viability Assay, 72 h). The class given is cell-based, human. Here is the method: as §1, §2
Series [1] can be described thus: Pharmacokinetic experiment in rats. The conditions noted are these: male, SD, rat, plasma, po, i.g. (20 mg/kg). The class given is in vivo. In outline:
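Male SD rats (~200 g, 6–8 weeks), single intravenous or intragastric dose, fasted 12–14 h pre-dose, fed 4 h post-dose. Orbital blood into EDTA-K2 under isoflurane, plasma by centrifugation at 4 °C; concentrations by HPLC-MS/MS for PK parameters and bioavailability.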

The target of another series is T1, BTK (Homo sapiens, UniProt Q06187).
T1 construct: endogenous in cells; host or cells: Mino human mantle cell lymphoma cells (ATCC)
T1 sequence (Q06187 whole entry): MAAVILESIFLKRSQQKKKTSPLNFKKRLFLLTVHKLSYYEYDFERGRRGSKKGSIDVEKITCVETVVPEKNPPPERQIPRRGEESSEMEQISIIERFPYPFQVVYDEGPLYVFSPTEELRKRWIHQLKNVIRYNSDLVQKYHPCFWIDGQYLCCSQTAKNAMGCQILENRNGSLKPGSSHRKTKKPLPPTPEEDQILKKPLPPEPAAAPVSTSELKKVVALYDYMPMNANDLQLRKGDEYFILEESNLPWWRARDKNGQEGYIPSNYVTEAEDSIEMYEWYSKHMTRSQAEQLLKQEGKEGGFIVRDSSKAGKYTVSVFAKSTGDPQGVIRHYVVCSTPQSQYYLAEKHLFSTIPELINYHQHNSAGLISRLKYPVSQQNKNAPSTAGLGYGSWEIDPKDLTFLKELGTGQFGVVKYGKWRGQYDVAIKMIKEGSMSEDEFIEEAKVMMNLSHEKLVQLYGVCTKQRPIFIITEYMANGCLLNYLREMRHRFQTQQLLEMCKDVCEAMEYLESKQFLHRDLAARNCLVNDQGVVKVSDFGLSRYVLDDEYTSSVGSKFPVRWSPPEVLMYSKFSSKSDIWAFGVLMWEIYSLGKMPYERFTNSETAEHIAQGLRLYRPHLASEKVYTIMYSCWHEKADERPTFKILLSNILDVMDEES
Nature of the series: Detection of BTK degradation in Mino cells (automated western blot). It is filed as cell-based. The conditions noted are these: 48 hours. Here is the method:
Mino human mantle cell lymphoma cell line was purchased from ATCC and cultured under the following conditions: RPMI-1640+15% FBS+1% double antibody in a 37° C., 5% CO2 incubator. Cells were plated in a 6-well plate, with 5×10^5 cells/well. After plating, the compounds at different concentrations were added and cultured in an incubator at 37° C. under 5% CO2 for 48 hours. After culturing, the cells were collected, and RIPA lysis buffer (Beyotime, Cat. P0013B) was added. The cells were lysed on ice for 15 minutes, and centrifuged at 12000 rpm at 4° C. for 10 minutes. The protein sample of the supernatant was collected, and the protein was quantified by using the BCA kit (Beyotime, Cat. P0009), and then the protein was diluted to 0.25 mg/mL. The expressions of BTK (CST, Cat. 8547S) and the internal reference β-actin (CST, Cat. 3700S) were detected using a fully automated western blot quantitative analyzer (Proteinsimple) with a kit (Protein simple, Cat. SM-W004). The expression level of BTK relative to the internal reference was calculated using Compass software, and the DC50 value was calculated using Origin9.2 software according to formula (3). Specifically, the BTKadministration denoted the expression level of BTK in administration groups at different doses, and the BTKvehicle denoted the expression level of BTK in the vehicle control group. […]
(In western blotting, separated proteins are transferred to a membrane and probed.)

The next series addresses T2, BTK protein (Mus musculus, UniProt P35991).
T2 construct: from tissue; host or cells: spleen of female ICR mice
Nature of the series: Detection of BTK protein degradation in spleen of mice. The class given is in vivo. Conditions: po, female ICR mice, 3 consecutive days of intragastric administration, read-out: DD50 value of compounds on BTK protein degradation in spleen of mice. Here is the method: Female ICR mice, 6-8 weeks old, were purchased from BEIJING VITAL RIVER LABORATORY ANIMAL TECHNOLOGY CO., LTD, and the experiment was started after 3 days of adaptation. After 3 consecutive days of intragastric administration of different doses of the compound, the spleen of mice was taken, the spleen cells were collected, and RIPA lysis buffer (Beyotime, Cat. P0013B) was added. The cells were lysed on ice for 15 minutes, and centrifuged at 12000 rpm at 4° C. for 10 minutes. The protein sample of the supernatant was collected, and the protein was quantified by using the BCA kit (Beyotime, Cat. P0009), and then the protein was diluted to 0.25 mg/mL. The expressions of BTK (CST, Cat. 8547S) and the internal reference β-actin (CST, Cat. 3700S) were detected using a fully automated western blot quantitative analyzer (Proteinsimple). The expression level of BTK relative to the internal reference was calculated using Compass software, and the DD50 value was calculated using Origin9.2 software according to formula (4). Specifically, the BTKadministration denoted the expression level of BTK in administration groups at different doses, and the BTKvehicle denoted the expression level of BTK in the vehicle control group. BTK %=BTKadministration/BTKvehicle×100% formula (4)

The next series addresses T3, Aiolos (Homo sapiens, UniProt Q9UKT9).
T3 construct: endogenous in cells; host or cells: Mino human mantle cell lymphoma cells (ATCC)
Nature of the series: Detection of Aiolos degradation in Mino cells (automated western blot). The class given is cell-based. The conditions noted are these: 48 hours. Here is the method:
Mino is a human mantle cell lymphoma cell line purchased from ATCC and cultured under the following conditions: RPMI-1640+15% FBS+1% double antibody in a 37° C., 5% CO2 incubator. Cells were plated in a 6-well plate, with 5×10^5 cells/well. After plating, the compounds at different concentrations were added and cultured in an incubator at 37° C. under 5% CO2 for 48 hours. After culturing, the cells were collected, and RIPA lysis buffer (Beyotime, Cat. P0013B) was added. The cells were lysed on ice for 15 minutes, and centrifuged at 12000 rpm at 4° C. for 10 minutes. The protein sample of the supernatant was collected, and the protein was quantified by using the BCA kit (Beyotime, Cat. P0009), and then the protein was diluted to 0.25 mg/mL. The expressions of Aiolos (CST, Cat. 15103S) and the internal reference GAPDH (CST, Cat. 5174S) were detected using a fully automated western blot quantitative analyzer (Proteinsimple). The expression level of Aiolos relative to the internal reference was calculated using Compass software, and the DC50 value was calculated using Origen9.2 software according to formula (5). Specifically, the Aiolosadministration denoted the expression level of Aiolos in administration groups at different doses, and the Aiolosvehicle denoted the expression level of Aiolos in the vehicle control group.
Aiolos %=Aiolosadministration/Aiolosvehicle×100% formula (5)

Like-named read-outs stand apart in the source and are kept apart here.

Usually IC50 stands for the concentration that gives 50% inhibition. A high value points to a need for much substance. One may read the bioavailability as dose-corrected exposure relative to a reference, in per cent. Broadly, the AUC(0-t) is the area under the concentration-time curve up to a stated or last time point. High values mean high exposure, low ones low exposure. In general, DC50 refers to the midpoint of the concentration-degradation curve. A lower DC50 goes with a more potent degrader.

T2 sequence (P35991 whole entry): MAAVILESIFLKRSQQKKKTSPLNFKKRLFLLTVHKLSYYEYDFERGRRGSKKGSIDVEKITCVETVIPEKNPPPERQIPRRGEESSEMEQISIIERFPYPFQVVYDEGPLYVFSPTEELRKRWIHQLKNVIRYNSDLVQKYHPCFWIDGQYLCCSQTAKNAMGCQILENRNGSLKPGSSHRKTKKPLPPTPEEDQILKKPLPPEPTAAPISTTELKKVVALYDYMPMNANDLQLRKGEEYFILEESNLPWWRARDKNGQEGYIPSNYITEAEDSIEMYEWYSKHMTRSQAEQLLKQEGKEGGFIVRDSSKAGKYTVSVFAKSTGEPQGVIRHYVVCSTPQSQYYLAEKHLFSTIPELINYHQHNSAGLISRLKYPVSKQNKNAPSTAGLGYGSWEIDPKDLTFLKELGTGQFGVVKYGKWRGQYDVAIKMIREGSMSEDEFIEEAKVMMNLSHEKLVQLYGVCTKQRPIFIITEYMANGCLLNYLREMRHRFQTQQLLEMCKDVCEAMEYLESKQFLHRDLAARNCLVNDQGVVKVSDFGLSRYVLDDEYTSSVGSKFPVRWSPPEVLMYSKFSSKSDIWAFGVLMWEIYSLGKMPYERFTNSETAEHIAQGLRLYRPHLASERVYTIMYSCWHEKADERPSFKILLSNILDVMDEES
T3 sequence (Q96SW2 whole entry partner): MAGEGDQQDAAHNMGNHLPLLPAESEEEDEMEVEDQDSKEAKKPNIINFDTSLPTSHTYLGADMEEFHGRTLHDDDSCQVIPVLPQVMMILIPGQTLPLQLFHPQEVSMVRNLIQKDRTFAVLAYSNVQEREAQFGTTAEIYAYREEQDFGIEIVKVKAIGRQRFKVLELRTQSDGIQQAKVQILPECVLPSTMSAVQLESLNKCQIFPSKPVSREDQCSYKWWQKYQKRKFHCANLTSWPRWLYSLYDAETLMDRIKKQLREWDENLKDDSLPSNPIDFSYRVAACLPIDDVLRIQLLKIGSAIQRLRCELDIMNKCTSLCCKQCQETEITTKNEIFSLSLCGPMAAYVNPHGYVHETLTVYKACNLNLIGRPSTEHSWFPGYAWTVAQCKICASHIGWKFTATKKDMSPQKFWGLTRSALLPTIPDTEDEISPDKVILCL
T3 sequence (Q16531 whole entry partner): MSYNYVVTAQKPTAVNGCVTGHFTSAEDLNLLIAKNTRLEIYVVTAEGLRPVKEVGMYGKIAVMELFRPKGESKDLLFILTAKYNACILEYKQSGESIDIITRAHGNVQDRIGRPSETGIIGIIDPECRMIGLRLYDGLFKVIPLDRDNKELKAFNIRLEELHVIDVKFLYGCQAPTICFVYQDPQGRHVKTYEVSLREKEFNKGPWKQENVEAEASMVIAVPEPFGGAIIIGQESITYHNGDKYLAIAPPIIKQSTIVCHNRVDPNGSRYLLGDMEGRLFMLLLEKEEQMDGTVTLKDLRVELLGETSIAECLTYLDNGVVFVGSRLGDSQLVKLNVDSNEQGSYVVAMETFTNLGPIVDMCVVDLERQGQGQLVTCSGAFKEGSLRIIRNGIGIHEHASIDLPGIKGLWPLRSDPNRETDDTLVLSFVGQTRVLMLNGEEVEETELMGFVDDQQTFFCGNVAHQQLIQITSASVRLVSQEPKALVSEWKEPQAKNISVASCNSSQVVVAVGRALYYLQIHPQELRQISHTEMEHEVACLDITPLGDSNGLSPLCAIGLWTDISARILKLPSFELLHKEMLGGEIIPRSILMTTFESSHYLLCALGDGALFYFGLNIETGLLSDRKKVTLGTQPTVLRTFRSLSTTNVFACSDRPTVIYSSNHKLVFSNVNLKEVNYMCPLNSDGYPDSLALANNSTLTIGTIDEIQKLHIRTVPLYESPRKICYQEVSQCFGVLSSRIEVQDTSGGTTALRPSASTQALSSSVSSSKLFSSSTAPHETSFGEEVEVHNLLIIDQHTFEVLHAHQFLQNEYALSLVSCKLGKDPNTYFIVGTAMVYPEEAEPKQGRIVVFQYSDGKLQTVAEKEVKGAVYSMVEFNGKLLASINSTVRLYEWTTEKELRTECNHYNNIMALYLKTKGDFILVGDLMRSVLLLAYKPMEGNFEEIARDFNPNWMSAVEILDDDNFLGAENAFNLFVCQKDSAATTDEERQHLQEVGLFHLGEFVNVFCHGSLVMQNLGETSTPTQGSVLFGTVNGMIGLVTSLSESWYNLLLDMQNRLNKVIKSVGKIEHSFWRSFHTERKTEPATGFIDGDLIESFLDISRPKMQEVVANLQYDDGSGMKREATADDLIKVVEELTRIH
T3 sequence (Q9UKT9 whole entry): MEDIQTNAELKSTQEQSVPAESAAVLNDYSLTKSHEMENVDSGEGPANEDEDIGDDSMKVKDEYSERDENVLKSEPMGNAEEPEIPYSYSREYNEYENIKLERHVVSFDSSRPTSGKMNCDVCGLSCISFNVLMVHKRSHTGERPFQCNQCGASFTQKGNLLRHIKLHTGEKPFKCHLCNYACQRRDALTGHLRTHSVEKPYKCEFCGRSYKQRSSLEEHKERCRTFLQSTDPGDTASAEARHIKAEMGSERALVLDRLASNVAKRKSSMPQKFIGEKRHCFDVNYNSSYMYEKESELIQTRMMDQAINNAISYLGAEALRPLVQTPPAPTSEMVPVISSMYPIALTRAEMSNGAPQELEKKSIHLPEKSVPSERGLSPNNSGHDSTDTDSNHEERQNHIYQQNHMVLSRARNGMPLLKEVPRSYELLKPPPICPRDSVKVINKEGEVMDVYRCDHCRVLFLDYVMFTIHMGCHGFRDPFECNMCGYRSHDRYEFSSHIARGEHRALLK

In the case of `Nc1ncnc2c1c(-c1ccc(Oc3ccccc3)cc1)nn2C1CCN(C2CN(CC3CN(c4ccc5c(c4)C(=O)N(C4CCC(=O)NC4=O)C5=O)C3)C2)CC1` (stereo not drawn) [Compound 85, 5-(3-((3-(4-(4-amino-3-(4-phenoxyphenyl)-1H-pyrazolo[3,4-d]pyrimidin-1-yl)piperidin-1-yl)azetidin-1-yl)methyl)azetidin-1-yl)-2-(2,6-dioxopiperidin-3-yl)isoindoline-1,3-dione], the IC50 in the series on Mino cells is 32 nM; with SU-DHL-4 cells, 624 nM; in the series on SU-DHL-4 cells (listed as compound 85), 10 to 1000 nM; with SU-DHL-6 cells it was 26 nM. This molecule had a bioavailability in series [1] (bioavailability) of 17.4 ± 5.6%. Besides, the AUC(0-t) in series [1] (single dose) amounted to 3030 ± 982 ng·h/mL. The DC50 is 1.6 nM at BTK and at least 1000 nM on Aiolos. The ED50 on BTK protein is 3.3 mg/kg.
